Here are results for 37 compounds from patent US20150284335A1, “Benzoimidazoles as prolyl hydroxylase inhibitors” (Janssen Pharmaceutica NV, priority 2008, published 2015).

Marks after values point to notes of the source that are not given here.

One assay deals with Hep-3B cells. Briefly: Cellular assay: EPO secretion in Hep-3B cells. The class given is cell-based, human. The note with it: 24 hours, percent of EPO secretion relative to assay control compound.
In the next assay the target is T1, PHD2181-417 (Homo sapiens, UniProt Q9GZT9).
T1 construct: histidine tag (N, cleaved yes); Smt3 (SUMO) tag (N, cleaved yes); made in house; host or cells: E. coli BL21 (pBAD vector)
T1 sequence (Q9GZT9 181-417): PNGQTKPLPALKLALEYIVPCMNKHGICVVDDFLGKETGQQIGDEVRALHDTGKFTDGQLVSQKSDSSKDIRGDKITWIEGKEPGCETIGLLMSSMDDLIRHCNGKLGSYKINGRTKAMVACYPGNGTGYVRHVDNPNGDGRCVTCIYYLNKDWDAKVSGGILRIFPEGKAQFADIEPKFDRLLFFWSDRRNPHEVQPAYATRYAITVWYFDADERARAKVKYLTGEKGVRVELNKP
As to the kind of experiment: PHD enzyme activity assay ([14C]-succinic acid production).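 Also: enzyme expressed in E. coli BL21, assayed in Tris-HCl pH 7.5 with catalase, DTT and ascorbate, [14C]-succinic acid beta-counted after DNP precipitation of residual 2-oxoglutarate.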 The class given is biochemical. To be noted: inhibition of PHD2181-417 activity; HIF-1α peptide 10 μM, [5-14C]-2-oxoglutaric acid, 10 minutes; read-out: Enzyme pIC50 (converted).

The mark [1] stands for this setting: final compound concentration 100 μM.

`C[C@@H](NC(=O)c1nc2cc(C(F)(F)F)cc(C(F)(F)F)c2[nH]1)C(=O)O` [Example 52, (R)-2-[(5,7-Bis-trifluoromethyl-1H-benzoimidazole-2-carbonyl)-amino]-propionic acid]: the “Cellular % EPO Stimulation” value in the assay on Hep-3B cells (setting [1]) came out at 17.80%.
Take `Cc1cc2nc(-n3cc(C(=O)O)cn3)[nH]c2cc1C` [Example 36, 1-(5,6-Dimethyl-1H-benzoimidazol-2-yl)-1H-pyrazole-4-carboxylic acid]: at PHD2181-417, the IC50 was 0.794 µM.
For the compound `C[C@H](NC(=O)c1nc2cc(C(F)(F)F)cc(C(F)(F)F)c2[nH]1)C(=O)O` [Example 7, (S)-2-[(5,7-Bis-trifluoromethyl-1H-benzoimidazole-2-carbonyl)-amino]-propionic acid], the “Cellular % EPO Stimulation” value in the assay on Hep-3B cells (setting [1]) stood at 1.60%.
As for `O=C(O)c1cnn(-c2nc3cc(-c4cccc(OCc5ccccc5)c4)ccc3[nH]2)c1` [Example 46, 1-[5-(3-Benzyloxy-phenyl)-1H-benzoimidazol-2-yl]-1H-pyrazole-4-carboxylic acid], the IC50 at PHD2181-417 is 0.0501 µM.
As for `O=C(O)c1cnn(-c2nc3c(Cl)cc(C(F)(F)F)cc3[nH]2)c1` [Example 39, 1-(4-Chloro-6-trifluoromethyl-1H-benzoimidazol-2-yl)-1H-pyrazole-4-carboxylic acid], the IC50 on PHD2181-417 was 0.158 µM.
For the compound `C[C@@H](NC(=O)c1nc2ccc(F)cc2[nH]1)C(=O)O` [Example 11, (R)-2-[(6-Fluoro-1H-benzoimidazole-2-carbonyl)-amino]-propionic acid], the “Cellular % EPO Stimulation” value in the assay with Hep-3B cells (setting [1]) is 23.93%. The IC50 at PHD2181-417 was 79.4 µM.
Regarding `O=C(O)CNC(=O)c1nc2cc(-c3cccc(OCc4cccc(F)c4)c3)ccc2[nH]1` [Example 16, ({5-[3-(3-Fluoro-benzyloxy)-phenyl]-1H-benzoimidazole-2-carbonyl}-amino)-acetic acid], in the assay on Hep-3B cells (setting [1]), the “Cellular % EPO Stimulation” value came to 2.10%. Moreover, the IC50 at PHD2181-417 is 2.51 µM.
For `O=C(O)CNC(=O)c1nc2ccc(NCc3ccccc3)cc2[nH]1` [Example 31, [(6-Benzylamino-1H-benzoimidazole-2-carbonyl)-amino]-acetic acid], the “Cellular % EPO Stimulation” value in the assay with Hep-3B cells (setting [1]) is reported as 1.40%. The IC50 on PHD2181-417 is 5.01 µM.
With `O=C(O)c1cnn(-c2nc3cc(-c4ccc(O)cc4)ccc3[nH]2)c1` [Example 59, 1-[5-(4-Hydroxy-phenyl)-1H-benzoimidazol-2-yl]-1H-pyrazole-4-carboxylic acid], the IC50 at PHD2181-417 was 0.251 µM.
As to `O=C(O)CNC(=O)c1nc2cc(-c3ccc4ccccc4c3)ccc2[nH]1` [Example 25, [(5-Naphthalen-2-yl-1H-benzoimidazole-2-carbonyl)-amino]-acetic acid], the “Cellular % EPO Stimulation” value in the assay with Hep-3B cells (setting [1]) worked out at 2.10%. The IC50 at PHD2181-417 was 12.6 µM.
With `O=C(O)c1cnn(-c2nc3cc(Cl)ccc3[nH]2)c1` [Example 61, 1-(5-Chloro-1H-benzoimidazol-2-yl)-1H-pyrazole-4-carboxylic acid], the IC50 at PHD2181-417 is 0.501 µM.
Take `O=C(O)CNC(=O)c1nc2cc(-c3cc(Cl)ccc3F)ccc2[nH]1` [Example 28, {[5-(5-Chloro-2-fluoro-phenyl)-1H-benzoimidazole-2-carbonyl]-amino}-acetic acid]: the “Cellular % EPO Stimulation” value with Hep-3B cells (setting [1]) was 1.40%. In addition, on PHD2181-417, the IC50 is 25.1 µM.
In the case of `C[C@@H](NC(=O)c1nc2cc(Cl)c(Cl)cc2[nH]1)C(=O)O` [Example 53, (R)-2-[(5,6-Dichloro-1H-benzoimidazole-2-carbonyl)-amino]-propionic acid], in the assay on Hep-3B cells (final compound concentration of 10 μM), the “Cellular % EPO Stimulation” value is 11.3* %. For the same compound, the IC50 at PHD2181-417 was over 100 µM.
For the compound `O=C(O)CNC(=O)c1nc2cc(-c3cc(F)cc(OCc4ccccc4)c3)ccc2[nH]1` [Example 19, {[5-(3-Benzyloxy-5-fluoro-phenyl)-1H-benzoimidazole-2-carbonyl]-amino}-acetic acid], the “Cellular % EPO Stimulation” value with Hep-3B cells (setting [1]) is given as −3.80%. The IC50 at PHD2181-417 is 6.31 µM.
Regarding `C[C@H](NC(=O)c1nc2ccccc2[nH]1)C(=O)O` [Example 2, (S)-2-[(1H-Benzoimidazole-2-carbonyl)-amino]-propionic acid], the “Cellular % EPO Stimulation” value in the assay on Hep-3B cells (setting [1]) was 66.03%. Also, the IC50 on PHD2181-417 is 39.8 µM.
Take `Cc1cc(-c2ccc3[nH]c(C(=O)NCC(=O)O)nc3c2)cc(C)c1OCc1cccc(Cl)c1` [Example 22, ({5-[4-(3-Chloro-benzyloxy)-3,5-dimethyl-phenyl]-1H-benzoimidazole-2-carbonyl}-amino)-acetic acid]: the “Cellular % EPO Stimulation” value with Hep-3B cells (setting [1]) is on record as −1.06%. Also, the IC50 on PHD2181-417 was 12.6 µM.
With `O=C(O)CNC(=O)c1nc2cc(-c3ccc(OCc4cccc(Cl)c4)c(Cl)c3)ccc2[nH]1` [Example 21, ({5-[3-Chloro-4-(3-chloro-benzyloxy)phenyl]-1H-benzoimidazole-2-carbonyl}-amino)-acetic acid], the “Cellular % EPO Stimulation” value in the assay on Hep-3B cells (setting [1]) is −1.43%. On PHD2181-417, the IC50 is 7.94 µM.
On to `Cc1nn(-c2nc3cc(Br)ccc3[nH]2)c(C)c1C(=O)O` [Example 57, 1-(5-Bromo-1H-benzoimidazol-2-yl)-3,5-dimethyl-1H-pyrazole-4-carboxylic acid], for which the IC50 at PHD2181-417 is 63.1 µM.
Take `C[C@@H](NC(=O)c1nc2ccc(I)cc2[nH]1)C(=O)O` [Example 54, (R)-2-[(5-Iodo-1H-benzoimidazole-2-carbonyl)-amino]-propionic acid]: in the assay on Hep-3B cells (setting [1]), the “Cellular % EPO Stimulation” value stood at 7.50%. In addition, at PHD2181-417, the IC50 is over 100 µM.
For `O=C(O)c1cn(-c2nc3cc(Cl)c(Cl)cc3[nH]2)nc1C(F)(F)F` [Example 56, 1-(5,6-dichloro-1H-benzoimidazol-2-yl)-3-trifluoromethyl-1H-pyrazole-4-carboxylic acid], the IC50 on PHD2181-417 is over 10 µM.
Consider `O=C(O)CNC(=O)c1nc2ccc(Br)cc2[nH]1` [Example 9, [(6-Bromo-1H-benzoimidazole-2-carbonyl)-amino]-acetic acid], for which, in the assay on Hep-3B cells (setting [1]), the “Cellular % EPO Stimulation” value was found to be 9.80%.
Consider `COc1cc2nc(-n3cc(C(=O)O)cn3)[nH]c2cc1OC` [Example 40, 1-(5,6-Dimethoxy-1H-benzoimidazol-2-yl)-1H-pyrazole-4-carboxylic acid], for which, on PHD2181-417, the IC50 was 0.398 µM.
Take `O=C(O)CNC(=O)c1nc2cc(-c3cccc(OCc4ccccc4F)c3)ccc2[nH]1` [Example 17, ({5-[3-(2-Fluoro-benzyloxy)-phenyl]-1H-benzoimidazole-2-carbonyl}-amino)-acetic acid]: in the assay on Hep-3B cells (setting [1]), the “Cellular % EPO Stimulation” value turned out to be 1.50%. For the same compound, the IC50 on PHD2181-417 is 5.01 µM.
For the compound `C[C@H](NC(=O)c1nc2ccc(F)cc2[nH]1)C(=O)O` [Example 10, (S)-2-[(6-Fluoro-1H-benzoimidazole-2-carbonyl)-amino]-propionic acid], the “Cellular % EPO Stimulation” value in the assay with Hep-3B cells (setting [1]) was 14.74%. The IC50 on PHD2181-417 was over 100 µM.
In the case of `COc1ccc2nc(C(=O)NCC(=O)O)[nH]c2c1` [Example 12, [(6-Methoxy-1H-benzoimidazole-2-carbonyl)-amino]-acetic acid], the “Cellular % EPO Stimulation” value in the assay with Hep-3B cells (setting [1]) is reported as 0.50%.
As for `Cc1c(Br)cc2nc(-n3cc(C(=O)O)cn3)[nH]c2c1C` [Example 62, 1-(5-Bromo-6,7-dimethyl-1H-benzoimidazol-2-yl)-1H-pyrazole-4-carboxylic acid], on PHD2181-417, the IC50 was 0.398 µM.
Turning to `O=C(O)CNC(=O)c1nc2ccccc2[nH]1` [Example 1, [(1H-Benzoimidazole-2-carbonyl)-amino]-acetic acid], the “Cellular % EPO Stimulation” value with Hep-3B cells (setting [1]) amounted to 23.9%.
Consider `O=C(O)c1cnn(-c2nc3cc(-c4ccc(Cl)c(Cl)c4)ccc3[nH]2)c1` [Example 49, 1-[5-(3,4-Dichloro-phenyl)-1H-benzoimidazol-2-yl]-1H-pyrazole-4-carboxylic acid], for which the IC50 on PHD2181-417 is 0.0794 µM.
Turning to `O=C(O)c1cnn(-c2nc3cc(-c4cccc(C(F)(F)F)c4)ccc3[nH]2)c1` [Example 48, 1-[5-(3-Trifluoromethyl-phenyl)-1H-benzoimidazol-2-yl]-1H-pyrazole-4-carboxylic acid], the IC50 at PHD2181-417 was 0.0794 µM.
`Cc1nn(-c2nc3cc(Cl)c(Cl)cc3[nH]2)c(C)c1C(=O)O` [Example 58, 1-(5,6-Dichloro-1H-benzoimidazol-2-yl)-3,5-dimethyl-1H-pyrazole-4-carboxylic acid]: the IC50 at PHD2181-417 was over 10 µM.
For the compound `O=C(O)c1cnn(-c2nc3cc(-c4cccc(O)c4)ccc3[nH]2)c1` [Example 60, 1-[5-(3-Hydroxy-phenyl)-1H-benzoimidazol-2-yl]-1H-pyrazole-4-carboxylic acid], at PHD2181-417, the IC50 is 0.316 µM.
Regarding `Cc1ccc2[nH]c(-n3cc(C(=O)O)cn3)nc2c1C` [Example 41, 1-(4,5-Dimethyl-1H-benzoimidazol-2-yl)-1H-pyrazole-4-carboxylic acid], the IC50 at PHD2181-417 is 7.94 µM.
`O=C(O)c1cnn(-c2nc3cc(-c4cccc(OCc5cccc(Cl)c5)c4)ccc3[nH]2)c1` [Example 43, 1-{5-[3-(3-Chloro-benzyloxy)-phenyl]-1H-benzoimidazol-2-yl}-1H-pyrazole-4-carboxylic acid]: the IC50 on PHD2181-417 was 0.0316 µM.
`O=C(O)c1cnn(-c2nc3cc(-c4ccc(OCc5ccccc5)cc4)ccc3[nH]2)c1` [Example 47, 1-[5-(4-Benzyloxy-phenyl)-1H-benzoimidazol-2-yl]-1H-pyrazole-4-carboxylic acid]: at PHD2181-417, the IC50 is 0.2 µM.
For `O=C(O)c1cn(-c2nc3cc(Br)ccc3[nH]2)nc1C(F)(F)F` [Example 55, 1-(5-Bromo-1H-benzoimidazol-2-yl)-3-trifluoromethyl-1H-pyrazole-4-carboxylic acid], the IC50 on PHD2181-417 was over 100 µM.
For `O=C(O)CNC(=O)c1nc2cc(C(F)(F)F)cc(C(F)(F)F)c2[nH]1` [Example 6, [(5,7-Bis-trifluoromethyl-1H-benzoimidazole-2-carbonyl)-amino]-acetic acid], the “Cellular % EPO Stimulation” value in the assay with Hep-3B cells (setting [1]) is listed as 4.20%.
`O=C(O)c1cnn(-c2nc3cc(-c4cccc(OCc5ccccc5Cl)c4)ccc3[nH]2)c1` [Example 44, 1-{5-[3-(2-Chloro-benzyloxy)-phenyl]-1H-benzoimidazol-2-yl}-1H-pyrazole-4-carboxylic acid]: the IC50 on PHD2181-417 was 0.0251 µM.
